# Measurements reported in patent publication US20250092030A1, “ENHANCERS OF PARTICULATE GUANYLYL CYCLASE RECEPTOR A” (Mayo Foundation for Medical Education and Research, priority 2023, published 2025).
# pEC50: −log10 of the molar value. Values joined by “and” are separate entries in the source; they are usually repeats but may differ in a detail not shown here. Equal entries are not always repeated.
# Target: T1, particulate guanylyl cyclase receptor A (pGC-A) (Homo sapiens, UniProt P16066)
# T1 construct: expressed in transfected cells; host or cells: HEK293
# T1 sequence (P16066 33-1061): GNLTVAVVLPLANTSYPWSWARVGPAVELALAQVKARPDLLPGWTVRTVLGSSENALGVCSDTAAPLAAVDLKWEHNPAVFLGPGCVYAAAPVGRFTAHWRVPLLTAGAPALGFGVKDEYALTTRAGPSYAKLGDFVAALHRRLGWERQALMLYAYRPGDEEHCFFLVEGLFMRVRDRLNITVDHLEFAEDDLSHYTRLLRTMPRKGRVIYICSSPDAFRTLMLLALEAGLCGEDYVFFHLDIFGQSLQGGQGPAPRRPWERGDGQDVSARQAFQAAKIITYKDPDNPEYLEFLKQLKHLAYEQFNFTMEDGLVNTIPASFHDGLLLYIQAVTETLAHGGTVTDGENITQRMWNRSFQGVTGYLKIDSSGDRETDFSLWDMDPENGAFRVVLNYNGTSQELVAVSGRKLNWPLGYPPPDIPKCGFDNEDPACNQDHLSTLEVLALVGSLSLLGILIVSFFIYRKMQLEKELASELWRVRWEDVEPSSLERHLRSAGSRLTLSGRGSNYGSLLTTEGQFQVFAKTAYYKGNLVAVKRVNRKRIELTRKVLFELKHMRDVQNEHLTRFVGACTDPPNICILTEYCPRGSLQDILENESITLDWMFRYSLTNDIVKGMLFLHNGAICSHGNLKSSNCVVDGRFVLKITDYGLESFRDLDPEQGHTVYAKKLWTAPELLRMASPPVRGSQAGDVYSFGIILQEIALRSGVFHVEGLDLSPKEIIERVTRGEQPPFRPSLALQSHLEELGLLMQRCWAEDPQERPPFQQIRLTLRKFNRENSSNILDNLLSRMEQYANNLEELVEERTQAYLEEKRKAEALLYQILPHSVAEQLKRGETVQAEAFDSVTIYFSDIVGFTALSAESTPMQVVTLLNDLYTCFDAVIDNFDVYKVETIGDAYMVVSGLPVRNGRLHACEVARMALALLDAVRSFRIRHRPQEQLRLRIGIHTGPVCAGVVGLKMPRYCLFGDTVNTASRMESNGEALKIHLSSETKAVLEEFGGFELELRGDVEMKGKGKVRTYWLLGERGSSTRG
# T1 sequence (P01160 124-151 partner limits assumed): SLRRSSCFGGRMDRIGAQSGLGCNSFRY
# Assay: cGMP production by HTRF in HEK293 cells overexpressing pGC-A, with ANP
# Type: cell-based
# Settings: for pEC50 / Max efficacy: HEK293 cells overexpressing pGC-A; for pEC50: test compound plus EC20 concentration of ANP, cGMP by HTRF; for Emax: HEK293, HEK293 cells overexpressing pGC-A, read-out: Max efficacy; for Emax / Max efficacy: cGMP normalized to maximal amount produced by an EC80 concentration of ANP
# From the text: Assay: Generally, the assay monitors the production of cGMP, the second messenger generated by pGC-A, by Time-Resolved Florescence (HTRF) in HEK293 cells overexpressing the pGC-A. pGC-A suspension cells were stimulated in the presence of the test compound and an EC20 concentration of ANP. The quantity of cGMP was detected by competitive immunoassay using Eu^3+ cryptate-labeled anti-cGMP and d2-labeled cGMP and normalized to maximal amount produced by an EC80 concentration of ANP. Compound EC50 values were determined in the primary assay, in the presence or absence of ANP, to determine mode of action as positive modulators and tested for selectivity in the same assay platform but in HEK cells overexpressing the particulate guanylyl cyclase B receptor (pGC-B), of which CNP is the endogenous ligand.
# Assay details: 20 nL of 10 μM test compound in DMSO was added to columns 5-48 of 1536 well white high base screening plates (Corning, New York, NY) cells using 550 ECHO acoustic dispenser (Labcyte, San Jose, CA). Alpha-atrial natriuretic peptide (ANP) (Phoenix Pharmaceutics) was prepared as stock aliquots at 5 μM in PBS with 0.1% BSA. An approximate […] concentration of ANP ([…]) in assay buffer (HBSS containing 5 mM HEPES and 0.05% BSA) was added to columns 3-48 at a volume of 1 μL. Assay buffer only was added to column 1 and assay buffer containing a saturating concentration of ANP (5 nM) was added to column 2. HEK293 cells overexpressing GC-A were resuspended in assay media (OptimMem media containing 2% Heat-inactivated Fetal bovine serum and L-glutamine) at a density of 6×10^5 cells/mL and 2 μL were plated in screening plates (1200 cells/well) in suspension using a Bioraptr 2. Plates were spun at 1000 rpm for 1 min and incubated for 30 min at room temperature. 1.5 μL d2-labeled cGMP followed by 1.5 μL Eu^3+ cryptate-labeled anti-cGMP cGMP detection kit (CiBio; #62GM2PEC) prepared according to manufacturer's protocol were added to all wells using a Bioraptr 2 and TR-FRET signal was detected on an EnVision detector (PerkinElmer). Wells treated with 0.3% DMSO only serve as blank controls (column 1); wells treated with 0.3% DMSO and 5 nM ANP (columns 2) serve as positive controls and wells treated with 0.3% DMSO and […] ANP (columns 3-4) serve as negative controls.
Structure (SMILES),pEC50,Emax,Max efficacy
O=C(Nc1nc2c(F)cc(F)cc2s1)c1ccccc1 [compound 199],< 5.00,,
COC(=O)CN1CCC(N2CCCC(C(=O)Nc3nc4c(F)cc(F)cc4s3)C2)C1 (stereo not shown) [compound 094],6.00,93%,
O=C(Nc1nc2c(Cl)cc(F)cc2s1)C1CCCN(c2ccncc2)C1 (stereo not shown) [compound 104],6.55,70%,
CN1CCC(N2CCCC(C(=O)Nc3nc4c(F)cc(F)cc4s3)C2)C1=O (stereo not shown) [compound 097],6.15,89%,
Cc1ccc2nc(NC(=O)C3CCCN(CCN(C)C)C3)sc2c1 (stereo not shown) [compound 017],< 5.00,,
CC(C)NC(=O)N1CCCC(C(=O)Nc2nc3c(F)cc(F)cc3s2)C1 (stereo not shown) [compound 278],5.59,70%,
O=C(Nc1nc2c(F)cc(F)cc2s1)C1CCCN(CCN2CCCC2)C1 (stereo not shown) [compound 239],6.66 and 6.52,87%,94% and 77%
CC(=O)N1CC(N2CCCC(C(=O)Nc3nc4c(Cl)cc(F)cc4s3)C2)C1 (stereo not shown) [compound 138],5.96,46%,
CC1C(N2CCCC(C(=O)Nc3nc4c(Cl)cc(F)cc4s3)C2)CN1C (stereo not shown) [compound 130],6.92,94%,
O=C(Nc1nc2c(F)cc(F)cc2s1)C1CCCN(c2cccnc2)C1 (stereo not shown) [compound 080],5.13 and 5.60,,135% and 104%
COc1cccc2sc(NC(=O)C3CCCN(CCN(C)C)C3)nc12 (stereo not shown) [compound 006],< 5.00,,
CN1CCC(N2CCCC(C(=O)Nc3nc4c(F)cc(F)cc4s3)C2)C1 (stereo not shown) [compound 069],6.70 to 7.52,,89-98%
CN(C)CCN1CCCC(C(=O)Nc2nc3c(F)cc(F)cc3[nH]2)C1 (stereo not shown) [249a],< 5.30,,
CN(C)CCN1CCCC(C(=O)Nc2nc3c(Cl)ccc(Cl)c3s2)C1 (stereo not shown) [compound 252],< 5.30,,
CN(C)CCN1CCCC(C(=O)Nc2nc3ccc(F)cc3s2)C1 (stereo not shown) [compound 015],< 5.00,,
CN(C)CCN[C@@H]1CCCCC1C(=O)Nc1nc2c(F)cc(F)cc2s1 (stereo partly shown) [compound 211],,101%,
O=C(Nc1nc2c(F)cc(F)cc2s1)C1CCCN(c2ccccn2)C1 (stereo not shown) [compound 079],< 5.30,,
CN(C)CCN1CC2(C(=O)Nc3nc4c(Cl)cc(F)cc4s3)CCC1CC2 [compound 061],5.99,94%,
O=C(Nc1nc2c(F)cc(F)cc2s1)C1CCCN(C(=O)N2CCCC2)C1 (stereo not shown) [compound 275],< 5.30,,
O=C(Nc1nc2c(F)cc(F)cc2s1)C1CNCC(O)C1 (stereo not shown) [compound 263],5.89,45%,
CN(C)CCN1CCCC(C(=O)Nc2ccc3cccc(F)c3n2)C1 (stereo not shown) [compound 191],< 5.30,,
O=C(Nc1nc2c(Cl)cc(F)cc2s1)C1CCCN(c2ccnc3ccccc23)C1 (stereo not shown) [compound 114],< 5.30,,
CN(C)CC(=O)N1CCCC(C(=O)Nc2nc3c(F)cc(F)cc3s2)C1 (stereo not shown) [compound 230],6.15,105%,
CN(C)CCN1CCCC(C(=O)Nc2nc(-c3ccccc3)cs2)C1 (stereo not shown) [compound 144],< 5.30,,
COc1ccc(C(=O)Nc2nc3c(F)cc(F)cc3s2)cc1 [compound 205],< 5.00,,
COC(=O)c1cc(F)c2nc(NC(=O)C3CCCN(CCN(C)C)C3)sc2c1 (stereo not shown) [compound 023],< 5.30,,

Structure (SMILES),pEC50,Emax,Max efficacy
CN(C)CCN1CCCC(C(=O)Nc2nc3cc(Cl)ccc3s2)C1 (stereo not shown) [compound 011],< 5.00,,
CN1CC(N2CCCC(C(=O)Nc3nc4c(Cl)cc(F)cc4s3)C2)C1 (stereo not shown) [compound 103],6.55,82%,
CCN(CC)CCN1CCCC(C(=O)Nc2nc3c(F)cc(F)cc3s2)C1 (stereo not shown) [compound 238],6.68 and 6.49,86%,92%
Cc1cc(F)c2nc(NC(=O)C3CCCN(CCN(C)C)C3)sc2c1 (stereo not shown) [compound 020],6.05,101%,
CN(C)CCN1CCCC(C(=O)Nc2nc3c(F)cc(Cl)cc3s2)C1 (stereo not shown) [compound 235],5.85 and 5.59,113%,"113, 113%"
O=C(Nc1nc2c(F)cc(F)cc2s1)C1CCCN(CCN2CCCC2C(=O)O)C1 (stereo not shown) [compound 259],5.89,74%,
CN(C)CCN1CCCC(C(=O)Nc2nc3c(F)cc(C(F)(F)F)cc3s2)C1 (stereo not shown) [compound 019],< 5.30,,
COCCOc1ccc(-c2csc(NC(=O)C3CCCN(CCN(C)C)C3)n2)cc1 (stereo not shown) [compound 160],< 5.30,,
O=C(Nc1nc2c(F)cc(F)cc2s1)C1CCCN(c2ccncc2F)C1 (stereo not shown) [compound 112],,97%,
O=C(Nc1nc2c(Br)cccc2s1)C1CCCN(C2CCNC2)C1 (stereo not shown) [compound 101],6.30,84%,
O=C(O)C1CNCC(C(=O)Nc2nc3c(F)cc(F)cc3s2)C1 (stereo not shown) [compound 271],< 5.30,,
CN(C)CCN1CCCC(C(=O)Nc2nc3c(Cl)c(Cl)ccc3s2)C1 (stereo not shown) [compound 250],5.85,60%,
CN(C)CCN1CCCCC1C(=O)Nc1nc2c(F)cc(F)cc2s1 (stereo not shown) [compound 037],,96%,
Cc1ccc(-c2csc(NC(=O)C3CCCN(CCN(C)C)C3)n2)cc1 (stereo not shown) [compound 153],< 5.30,,
CN(C)CCN1CCCC(C(=O)Nc2nc3c(C#N)cccc3s2)C1 (stereo not shown) [compound 007],6.22,41%,
COCc1cc(F)c2nc(NC(=O)C3CCCN(CCN(C)C)C3)sc2c1 (stereo not shown) [compound 029],< 5.30,,
O=C(Nc1nc2c(F)cc(F)cc2s1)C1CCCN(CCN2CCCCC2)C1 (stereo not shown) [compound 243],6.33 and 6.70,91%,77%
O=C1CCC(C(=O)Nc2nc3c(F)cc(F)cc3s2)CN1 (stereo not shown) [compound 222],6.00,58%,
COc1cccc(C(=O)Nc2nc3c(F)cc(F)cc3s2)c1 [compound 204],< 5.00,,
CN(C)C(=O)CN1CCCC(C(=O)Nc2nc3c(F)cc(F)cc3s2)C1 (stereo not shown) [compound 229],5.72,91%,
COC1CNCC(C(=O)Nc2nc3c(F)cc(F)cc3s2)C1 (stereo not shown) [compound 265],5.77,75%,
O=C(Nc1nc2c(F)cc(F)cc2s1)C1CCCN(CCn2ccnc2)C1 (stereo not shown) [compound 068],6.05,89%,
COc1cc(F)c2nc(NC(=O)C3CCCN(CCN(C)C)C3)sc2c1 (stereo not shown) [compound 021],5.17 and 5.77,,77%
O=C(Nc1nc2c(F)cc(F)cc2s1)C1CCCN(c2ccncn2)C1 (stereo not shown) [compound 109],6.70 and 5.97,82%,74%
CN1CCC(N2CCCC(C(=O)Nc3nc4c(F)cc(F)cc4s3)C2)C1 (stereo not shown) [compound 090],6.80 and 7.15,85%,69%
